The values below come from patent US6207172A, “Composition for the delivery of a pharmaceutical agent to a patient” (Warner-Lambert Company, priority 1998, dated 2001).

Structures are written as SMILES. Where two headings read alike, the source gives them in different places.

Series [1] in a line: Mean particle size of the PEG/PVP formulation after filtration. The conditions noted are these: diameter; PEG 3350/10% PVP pH 7.4 phosphate buffer formulation, filtered through 0.45 μm PTFE filter. Format: physicochemical. The procedure:
After formation of the composition for delivering a pharmaceutical agent to a patient, the composition has been successfully extruded through both 0.45 and […] nylon filters, yielding a particle size of around 500 or 300 nm, respectively. In addition, the compositions can be autoclaved. The compositions have also been freeze dried and can be reconstituted by the addition of water or a buffer.
To the melted phase were then added 3 mL of 10% PVP in pH 7.4 phosphate buffer with stirring. The mixture was stirred during cool-down to room temperature. Before administration, the formulation was filtered through a 0.45 μm PTFE filter. […] The final concentration was calculated to be 10 mg/mL.
Butyl-[2,5-dimethyl-7-(2,4,6-trimethyl-phenyl)-7H-pyrrolo[2,3-d]pyrimidin-4-yl]-ethyl-amine (CRF-1 receptor antagonist) was formulated in the PEG/PVP system as follows. Thirty milligrams of Butyl-[2,5-dimethyl-7-(2,4,6-trimethyl-phenyl)-7H-pyrrolo[2,3-d]pyrimidin- 4-yl]-ethyl-amine were dissolved in 1.5 g of molten (65° C.) PEG 3350. To the melted phase were then added 1.5 mL of 10% PVP in pH 7.4 phosphate buffer with stirring. The mixture was stirred during cool-down to room temperature. Before administration, the formulation was filtered through a 0.45 μm PTFE filter. […] The final concentration was calculated to be 10 mg/mL.

Series [2] is described as follows: Oral pharmacokinetics in fasted male Wistar rats. It counts as in vivo. The conditions noted are these: for AUC(0-t) at 8 h / Cmax: rat, blood, po, 10 mg/kg, fasted male Wistar rats. The procedure: Single, 10-mg/kg oral gavage doses of the Butyl-[2,5-dimethyl-7-(2,4,6-trimethyl-phenyl)-7H-pyrrolo[2,3-d]pyrimidin- 4-yl]-ethyl-amine PEG/PVP formulation were given to 3 fasted male Wistar rats. In parallel, single, 10-mg/kg oral gavage doses of Butyl-[2,5-dimethyl-7-(2,4,6-trimethyl-phenyl)-7H-pyrrolo[2,3-d]pyrimidin- 4-yl]-ethyl-amine, as an aqueous suspension in 0.1% Tween 80, were administered to 3 additional fasted male Wistar rats. Blood samples were serially drawn over the 24-hour period following administration and assayed for Butyl-[2,5-dimethyl-7-(2,4,6-trimethyl-phenyl)-7H-pyrrolo[2,3-d]pyrimidin- 4-yl]-ethyl-amine concentrations.

Series [3] has as its system tumor-bearing mice. As to the kind of experiment: Tumor growth inhibition in tumor-bearing mice (change in tumor size from Day 1). It counts as in vivo. The conditions noted are these: PEG/PVP 200 mg/kg daily vs DMA/lactate 400 mg/kg (200 mg/kg twice daily), oral gavage, 10 days.
Source text: (§1) Single, 200-mg/kg daily oral gavage doses of the PEG/PVP formulation were given to 3 tumor-bearing mice for 10 days.
For series [4], the system named is tumor-bearing mice. In words: Deaths of tumor-bearing mice during 10 days oral gavage dosing. It counts as in vivo. The conditions noted are these: 3 mice.
Source text: as §1
The mark [5] stands for this setting: PEG/PVP emulsion vs 0.1% Tween 80 suspension, 10 mg/kg oral.

For `CCCCN(CC)c1nc(C)nc2c1c(C)cn2-c1c(C)cc(C)cc1C` [Butyl-[2,5-dimethyl-7-(2,4,6-trimethyl-phenyl)-7H-pyrrolo[2,3-d]pyrimidin-4-yl]-ethyl-amine], the Mean particle size entry in series [1] is “approximately 420 nm”. For the same compound, the “AUC(0-8), difference between the 2 dose groups” value in series [2] (setting [5]) was “Neither Cmax, AUC(0-8), nor half-life differed significantly between the 2 dose groups”. The “Cmax, difference between the 2 dose groups” value in series [2] (setting [5]) is “Neither Cmax, AUC(0-8), nor half-life differed significantly between the 2 dose groups”. Also, the “half-life, difference between the 2 dose groups” value in series [2] (setting [5]) is recorded as “Neither Cmax, AUC(0-8), nor half-life differed significantly between the 2 dose groups”. Besides, the AUC(0-t) at 8 h is 283 ng·h/mL in series [2] (PEG/PVP emulsion, 10 mg/kg single oral gavage, read-out: AUC(0-8), PEG/PVP-dosed rats) and 267 ng·h/mL in series [2] (aqueous suspension in 0.1% Tween 80, 10 mg/kg single oral gavage, read-out: AUC(0-8), suspension-dosed). The Cmax in series [2] (PEG/PVP emulsion, 10 mg/kg single oral gavage, read-out: Mean Cmax, PEG/PVP emulsion group) is 283 ng/mL; in series [2] (aqueous suspension in 0.1% Tween 80, 10 mg/kg single oral gavage, read-out: Mean Cmax, 0.1% Tween group), 267 ng/mL.
`CNc1cc2c(Nc3cccc(Br)c3)ncnc2cn1` [N^4-(3-Bromo-phenyl)-N^6-methyl-pyrido[3,4-d]pyrimidine-4,6-diamine]: the Mean particle size entry in series [1] is listed as “approximately 400 nm”. Moreover, in the series on tumor-bearing mice [3], the “Tumor growth inhibition, ratio PEG/PVP emulsion to DMA/lactate preparation” value turned out to be 4 fold. For the same compound, in the series on tumor-bearing mice [4] (DMA/lactate, 400 mg/kg (200 mg/kg oral gavage twice daily)), the “mice that died, DMA/lactate system” value is “all 3 mice dosed with the DMA/lactate system died”. For the same compound, the “mice that died, PEG/PVP preparation” value in the series with tumor-bearing mice [4] (PEG/PVP, 200 mg/kg daily oral gavage) was “None of the mice given the PEG/PVP preparation died”.
